Results: publication PMC9310613, “Selenocarbamates As a Prodrug‐Based Approach to Carbonic Anhydrase Inhibition” (Chemmedchem, 2022)
Where two headings read alike, the source gives them in different places.

Assays:
Experiment in all cases: stopped-flow CO2 hydration assay
Assay type in all cases: biochemical
hCA I = molecular target: T1, hCA I (Homo sapiens, UniProt P00915)
T1 construct: gene CA1; recombinant, obtained in house
Source text: stopped-flow CO2 hydration assay on hCA I

hCA II [1] = molecular target: T2, hCA II (Homo sapiens, UniProt P00918)
T2 construct: gene CA2; recombinant, obtained in house
Source text: stopped-flow CO2 hydration assay on hCA II

hCA II [2] = molecular target: T2, hCA II; settings: read-out: hCA I

T1 sequence (P00915 2-261): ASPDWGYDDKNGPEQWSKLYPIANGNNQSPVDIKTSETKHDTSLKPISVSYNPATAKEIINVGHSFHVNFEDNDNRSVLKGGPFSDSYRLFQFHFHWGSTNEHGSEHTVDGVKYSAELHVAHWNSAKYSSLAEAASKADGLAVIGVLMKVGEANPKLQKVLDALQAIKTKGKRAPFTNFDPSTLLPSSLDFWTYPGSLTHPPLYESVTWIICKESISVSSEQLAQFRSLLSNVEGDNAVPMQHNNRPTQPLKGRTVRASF

Row | Ki (hCA I) | Ki (hCA II [1]) | Ki (hCA II [2]) | SMILES
1 | 9.8 µM | 6.8 µM |  | NC(=O)[Se]c1ccccc1 [3j, 1‐(phenylselanyl)formamide]
2 | 13.4 µM | 8 µM |  | Cc1ccccc1[Se]C(=O)Nc1ccc(Br)cc1 [3l, 3 l]
3 | > 100 µM |  | > 100 µM | Cc1ccc(S(=O)(=O)N[C@@H](C)C[Se]C(=O)Nc2cc(C)cc(C)c2)cc1 [3u, 3 u]
4 | 49.3 µM | 7.9 µM |  | COc1cccc(NC(=O)[Se]c2ccccc2)c1 [3d, 3 d]
5 | 74.3 µM | 84.6 µM |  | Cc1cc(C)cc(NC(=O)[Se][C@@H]2CCCC[C@H]2O)c1 (relative stereo) [3s, 3 s]
6 | 67.5 µM | 79.3 µM |  | C=CCOCC(O)C[Se]C(=O)Nc1cc(C)cc(C)c1 (racemic) [3q, 3 q]
7 | 13.8 µM | 8.6 µM |  | O=C(Nc1ccc(Br)cc1)[Se]c1ccccc1 [3h, 3 h]
8 | 42.5 µM | 13.1 µM |  | O=C(Nc1ccc(Cl)cc1)[Se]c1ccccc1 [3g, 3 g]
9 | 30.8 µM | 9.2 µM |  | O=C(Nc1ccccc1F)[Se]c1ccccc1 [3e, 3 e]
10 | 67.4 µM | 83.4 µM |  | O=C(NCc1ccco1)[Se][C@@H]1CCCC[C@H]1O (relative stereo) [3t, 3 t]
11 | 92.1 µM | 87.4 µM |  | CCCCCCCCCCCC[Se]C(=O)Nc1ccc(Br)cc1 [3m, 3 m]
12 | 38.6 µM | 11.6 µM |  | Cc1ccc([Se]C(=O)Nc2ccc(Br)cc2)cc1 [3k, 3 k]
13 | 40.4 µM | 4.1 µM |  | O=C(Nc1ccccc1)[Se]c1ccccc1 [3b, 3 b]
14 | 85 µM | 39.9 µM |  | O=C(Nc1ccc(Br)cc1)[Se]Cc1ccccc1 [3p, 3 p]
15 | 15.3 µM | 9.4 µM |  | O=C(Nc1ccc(F)cc1)[Se]c1ccccc1 [3f, 3 f]
16 | 8.8 µM | 40.4 µM |  | O=C(NCc1ccco1)[Se]c1ccccc1 [3i, 3 i]
17 | 90.3 µM | 85.2 µM |  | CCCCCCCCCCCC[Se]C(N)=O [3n, 3 n]
18 | 92.7 µM | 79.4 µM |  | CC(C)OCC(O)C[Se]C(=O)NC12CC3CC(CC(C3)C1)C2 (racemic) [3r, 3 r]

Row | SMILES | Ki (hCA I) | Ki (hCA II [1]) | Ki (hCA II [2])
19 | Cc1cc(C)cc(NC(=O)[Se]c2ccccc2)c1 [3a, 3 a] | 49.5 µM | 5.3 µM | 
20 | Cc1ccc(NC(=O)[Se]c2ccccc2)cc1 [3c, 3 c] | 25.9 µM | 8.4 µM | 
